The source of these data is patent US20240209019A1, “COMPOUNDS AND METHODS FOR TREATING HYPERKALEMIA” (ARDELYX, INC., priority 2019, published 2024).

Broadly, the pIC50 is the IC50 on a negative log10 scale, so that one unit is a factor of ten. The low end stands for a large IC50, the high end for a small IC50.

The experiment deals with HSD2 (Homo sapiens (Human), UniProt P80365). The experiment in a line: HSD2 activity: cortisol conversion in human descending colon organoid monolayer cultures (Example 112). The note with it: human descending colon epithelial cultures on transwells; 30 minute pre-incubation, then 40 nM cortisol for four hours; cortisol HTRF assay.
Sequence of HSD2 (P80365 whole entry): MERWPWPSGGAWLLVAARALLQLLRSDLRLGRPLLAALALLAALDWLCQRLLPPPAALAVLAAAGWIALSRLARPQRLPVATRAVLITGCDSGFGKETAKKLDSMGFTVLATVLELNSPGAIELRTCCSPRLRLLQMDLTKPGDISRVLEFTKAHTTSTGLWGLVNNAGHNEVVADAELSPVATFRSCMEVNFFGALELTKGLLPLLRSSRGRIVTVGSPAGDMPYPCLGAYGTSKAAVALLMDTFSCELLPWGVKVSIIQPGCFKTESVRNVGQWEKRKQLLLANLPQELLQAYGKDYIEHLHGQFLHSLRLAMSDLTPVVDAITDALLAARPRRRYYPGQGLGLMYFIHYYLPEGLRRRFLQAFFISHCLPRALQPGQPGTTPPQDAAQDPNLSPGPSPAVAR
Procedure: Human descending colon epithelial stem cells were cultured as 3D organoids in accordance with Sato et al. Gastroenterology. […] Cultures were differentiated using SBM containing ENRA and 30 nM aldosterone on day 3, and cultures were used for assay on day 6 or 7. Compounds were diluted in DMSO and serial dilutions prepared by titrating in DMSO. Compounds were then diluted into DMEM/F12. Transwell plates containing descending colon cultures were washed twice with DMEM/F12 and compound was added to the apical compartment. Cells were incubated with test compound for 30 minutes at 37° C., 5% CO2 to equilibrate across the cell membrane. A second compound plate was prepared in which the serially diluted compounds in DMSO were diluted into DMEM/F12 containing 40 nM cortisol. Following the 30 minute pre-incubation step, the apical media was aspirated and compounds diluted in DMEM/F12 with 40 nM cortisol were added to the apical side of the transwell. The plate was then incubated for four hours at 37° C., 5% CO2. Cortisol levels were measured using a cortisol HTRF assay kit as described by the manufacturer (Cisbio). Concentration-response curves were then plotted and IC50 (and pIC50) values were determined using least squares non-linear regression.
Inhibition of HSD2 activity as measured by the inhibition of the conversion of cortisone to cortisol.
In turn, `Cc1oc(=O)oc1COC(=O)[C@]1(C)[C@@H](OC(=O)CS(C)(=O)=O)CC[C@@]2(C)[C@H]1CC[C@]1(C)[C@@H]2C(=O)C=C2[C@@H]3C[C@@](C)(C(=O)O)CC[C@]3(C)CC[C@]21C` [Compound 195-2, (2S,4aS,6aS,6bR,8aR,9S,10S,12aS,12bR,14bR)-2,4a,6a,6b,9,12a-Hexamethyl-9-(((5-methyl-2-oxo-1,3-dioxol-4-yl)methoxy)carbonyl)-10-(2-(methylsulfonyl)acetoxy)-13-oxo-1,2,3,4,4a,5,6,6a,6b,7,8,8a,9,10,11,12,12a,12b,13,14b-icosahydropicene-2-carboxylic acid] displayed a pIC50 of 6.3.
Consider `COCC(=O)O[C@H]1CC[C@@]2(C)[C@@H](CC[C@]3(C)[C@@H]2C(=O)C=C2[C@@H]4C[C@@](C)(C(=O)O)CC[C@]4(C)CC[C@]23C)[C@]1(C)C(=O)OCc1oc(=O)oc1C(C)C` [Compound 708-1, (2S,4aS,6aS,6bR,8aR,9S,10S,12aS,12bR,14bR)-10-[(2-methoxyacetyl)oxy]-2,4a,6a,6b,9,12a-hexamethyl-13-oxo-9-({[2-oxo-5-(propan-2-yl)-2H-1,3-dioxol-4-yl]methoxy}carbonyl)-1,2,3,4,4a,5,6,6a,6b,7,8,8a,9,10,11,12,12a,12b,13,14b-icosahydropicene-2-carboxylic acid], for which the pIC50 was 6.3.
The compound `CC(=O)O[C@H]1CC[C@@]2(C)[C@@H](CC[C@]3(C)[C@@H]2C(=O)C=C2[C@@H]4C[C@@](C)(C(=O)O)CC[C@]4(C)CC[C@]23C)[C@]1(C)C(=O)OCc1oc(=O)oc1C(C)C` [Compound 209-3, (2S,4aS,6aS,6bR,8aR,9S,10S,12aS,12bR,14bR)-10-acetoxy-9-(((5-isopropyl-2-oxo-1,3-dioxol-4-yl)methoxy)carbonyl)-2,4a,6a,6b,9,12a-hexamethyl-13-oxo-1,2,3,4,4a,5,6,6a,6b,7,8,8a,9,10,11,12,12a,12b,13,14b-icosahydropicene-2-carboxylic acid] had a pIC50 of 7.2.
`CC(=O)O[C@H]1CC[C@@]2(C)[C@@H](CC[C@]3(C)[C@@H]2C(=O)C=C2[C@@H]4C[C@@](C)(C(=O)O)CC[C@]4(C)CC[C@]23C)[C@]1(C)C(=O)OCc1oc(=O)oc1C` [Compound 243-1, (2S,4aS,6aS,6bR,8aR,9S,10S,12aS,12bR,14bR)-10-Acetoxy-2,4a,6a,6b,9,12a-hexamethyl-9-(((5-methyl-2-oxo-1,3-dioxol-4-yl)methoxy)carbonyl)-13-oxo-1,2,3,4,4a,5,6,6a,6b,7,8,8a,9,10,11,12,12a,12b,13,14b-icosahydropicene-2-carboxylic acid]: the pIC50 was determined as 7.5.
The same measure for `Cc1oc(=O)oc1COC(=O)[C@]1(C)[C@@H](OC(=O)C2CC2)CC[C@@]2(C)[C@H]1CC[C@]1(C)[C@@H]2C(=O)C=C2[C@@H]3C[C@@](C)(C(=O)O)CC[C@]3(C)CC[C@]21C` [Compound 198-2, (2S,4aS,6aS,6bR,8aR,9S,10S,12aS,12bR,14bR)-10-((Cyclopropanecarbonyl)oxy)-2,4a,6a,6b,9,12a-hexamethyl-9-(((5-methyl-2-oxo-1,3-dioxol-4-yl)methoxy)carbonyl)-13-oxo-1,2,3,4,4a,5,6,6a,6b,7,8,8a,9,10,11,12,12a,12b,13,14b-icosahydropicene-2-carboxylic acid]: 7.7; for `Cc1oc(=O)oc1COC(=O)COC[C@@]1(C)[C@@H]2CC[C@]3(C)[C@H](C(=O)C=C4[C@@H]5C[C@@](C)(C(=O)O)CC[C@]5(C)CC[C@]43C)[C@@]2(C)CC[C@@H]1O` [Compound 240-8, (2S,4aS,6aS,6bR,8aR,9R,10S,12aS,12bR,14bR)-10-Hydroxy-2,4a,6a,6b,9,12a-hexamethyl-9-((2-((5-methyl-2-oxo-1,3-dioxol-4-yl)methoxy)-2-oxoethoxy)methyl)-13-oxo-1,2,3,4,4a,5,6,6a,6b,7,8,8a,9,10,11,12,12a,12b,13,14b-icosahydropicene-2-carboxylic acid]: 5.
Turning to `CCOC(=O)c1cnn([C@H]2CC[C@@]3(C)[C@@H](CC[C@]4(C)[C@@H]3C(=O)C=C3[C@@H]5C[C@@](C)(C(=O)O)CC[C@]5(C)CC[C@]34C)[C@]2(C)C(=O)O)c1OC` [(2S,4aS,6aS,6bR,8aR,9S,10S,12aS,12bR,14bR)-10-[4-(ethoxycarbonyl)-5-methoxy-1H-pyrazol-1-yl]-2,4a,6a,6b,9,12a-hexamethyl-13-oxo-1,2,3,4,4a,5,6,6a,6b,7,8,8a,9,10,11,12,12a,12b,13,14b-icosahydropicene-2,9-dicarboxylic acid], the pIC50 came to 5.6.
Under `CSCC(=O)O[C@H]1CC[C@@]2(C)[C@@H](CC[C@]3(C)[C@@H]2C(=O)C=C2[C@@H]4C[C@@](C)(C(=O)O)CC[C@]4(C)CC[C@]23C)[C@]1(C)C(=O)OCc1oc(=O)oc1C` [Compound 194-10, (2S,4aS,6aS,6bR,8aR,9S,10S,12aS,12bR,14bR)-2,4a,6a,6b,9,12a-Hexamethyl-9-(((5-methyl-2-oxo-1,3-dioxol-4-yl)methoxy)carbonyl)-10-(2-(methylthio)acetoxy)-13-oxo-1,2,3,4,4a,5,6,6a,6b,7,8,8a,9,10,11,12,12a,12b,13,14b-icosahydropicene-2-carboxylic acid] stands 8.
Under `Cc1oc(=O)oc1COC(=O)[C@]1(C)[C@@H](OC(=O)NCCN2CCOCC2)CC[C@@]2(C)[C@H]1CC[C@]1(C)[C@@H]2C(=O)C=C2[C@@H]3C[C@@](C)(C(=O)O)CC[C@]3(C)CC[C@]21C` [Compound 286-4, (2S,4aS,6aS,6bR,8aR,9S,10S,12aS,12bR,14bR)-2,4a,6a,6b,9,12a-hexamethyl-9-(((5-methyl-2-oxo-1,3-dioxol-4-yl)methoxy)carbonyl)-10-(((2-morpholinoethyl)carbamoyl)oxy)-13-oxo-1,2,3,4,4a,5,6,6a,6b,7,8,8a,9,10,11,12,12a,12b,13,14b-icosahydropicene-2-carboxylic acid] stands 6.9; under `COC(=O)N[C@H]1CC[C@@]2(C)[C@@H](CC[C@]3(C)[C@@H]2C(=O)C=C2[C@@H]4C[C@@](C)(C(=O)O)CC[C@]4(C)CC[C@]23C)[C@]1(C)C(=O)OCc1oc(=O)oc1C` [Compound 281-3, (2S,4aS,6aS,6bR,8aR,9S,10S,12aS,12bR,14bR)-10-((methoxycarbonyl)amino)-2,4a,6a,6b,9,12a-hexamethyl-9-(((5-methyl-2-oxo-1,3-dioxol-4-yl)methoxy)carbonyl)-13-oxo-1,2,3,4,4a,5,6,6a,6b,7,8,8a,9,10,11,12,12a,12b,13,14b-icosahydropicene-2-carboxylic acid], 6.7; under `C[C@]1(C(=O)O)CC[C@]2(C)CC[C@]3(C)C(=CC(=O)[C@@H]4[C@@]5(C)CC[C@H](OC(=O)c6ccccc6)[C@@](C)(C(=O)O)[C@@H]5CC[C@]43C)[C@@H]2C1` [(2S,4aS,6aS,6bR,8aR,9S,10S,12aS,12bR,14bR)-10-(benzoyloxy)-2,4a,6a,6b,9,12a-hexamethyl-13-oxo-1,2,3,4,4a,5,6,6a,6b,7,8,8a,9,10,11,12,12a,12b,13,14b-icosahydropicene-2,9-dicarboxylic acid], 6.6.
